Tested on: A375 multi-cell spheroids with HUVEC/MSC, viability
Assay: Anticancer human tumor A375 cell line growth inhibition [GQUAD];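 note: spheroids exposed to compounds for seven days before readout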
Conditions: for IC50: curve of first compound; for viability, T/C: stronger effect = lower value
Method in brief: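 Viability of tumor cells grown as complex spheroids with endothelial and stromal cells, exposed to drug combinations. Top concentration at or near clinical Cmax (else 10 microM), diluted in half-log increments.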

[1] = second compound 0.0316 µM, first compound 0.0316 µM
[2] = second compound 0.0316 µM, first compound 0.1 µM
[3] = second compound 0.0316 µM, first compound 0.316 µM
[4] = second compound 0.0316 µM, first compound 1 µM
[5] = second compound 0.0316 µM, first compound 3.16 µM
[6] = second compound 0.0316 µM, first compound 10 µM
[7] = second compound 0.1 µM, first compound 0.0316 µM
[8] = second compound 0.1 µM, first compound 0.1 µM
[9] = second compound 0.1 µM, first compound 0.316 µM
[10] = second compound 0.1 µM, first compound 1 µM
[11] = second compound 0.1 µM, first compound 3.16 µM
[12] = second compound 0.1 µM, first compound 10 µM
[13] = second compound 0.316 µM, first compound 0.0316 µM
[14] = second compound 0.316 µM, first compound 0.1 µM
[15] = second compound 0.316 µM, first compound 0.316 µM
[16] = second compound 0.316 µM, first compound 1 µM
[17] = second compound 0.316 µM, first compound 3.16 µM
[18] = second compound 0.316 µM, first compound 10 µM
[19] = second compound 1 µM, first compound 0.0316 µM
[20] = second compound 1 µM, first compound 0.1 µM
[21] = second compound 1 µM, first compound 0.316 µM
[22] = second compound 1 µM, first compound 1 µM
[23] = second compound 1 µM, first compound 3.16 µM
[24] = second compound 1 µM, first compound 10 µM
[25] = second compound 3.16 µM, first compound 0.0316 µM
[26] = second compound 3.16 µM, first compound 0.1 µM
[27] = second compound 3.16 µM, first compound 0.316 µM
[28] = second compound 3.16 µM, first compound 1 µM
[29] = second compound 3.16 µM, first compound 3.16 µM
[30] = second compound 3.16 µM, first compound 10 µM
[31] = second compound 10 µM, first compound 0.0316 µM
[32] = second compound 10 µM, first compound 0.1 µM
[33] = second compound 10 µM, first compound 0.316 µM
[34] = second compound 10 µM, first compound 1 µM
[35] = second compound 10 µM, first compound 3.16 µM
[36] = second compound 10 µM, first compound 10 µM

Compound: CC(C)n1c(=O)n(C)c2cnc3cc(F)c(-c4ccc(OCCCN5CCCCC5)nc4)cc3c21 + CN(C)c1ccc(Nc2c3ccc(NC(=O)CCN4CCCC4)cc3nc3cc(NC(=O)CCN4CCCC4)ccc23)cc1
- IC50 (second compound 0.0316 µM): > 10000 nM
- IC50 (second compound 0.1 µM): > 10000 nM
- IC50 (second compound 0.316 µM): > 10000 nM
- IC50 (second compound 1 µM): > 10000 nM
- IC50 (second compound 3.16 µM): > 10000 nM
- IC50 (second compound 10 µM): 4830 nM
- viability, T/C [1]: 109%
- viability, T/C [2]: 99.5%
- viability, T/C [3]: 105%
- viability, T/C [4]: 106%
- viability, T/C [5]: 114%
- viability, T/C [6]: 88.3%
- viability, T/C [7]: 108%
- viability, T/C [8]: 106%
- viability, T/C [9]: 97.9%
- viability, T/C [10]: 98.5%
- viability, T/C [11]: 115%
- viability, T/C [12]: 91.2%
- viability, T/C [13]: 103%
- viability, T/C [14]: 97.1%
- viability, T/C [15]: 103%
- viability, T/C [16]: 109%
- viability, T/C [17]: 116%
- viability, T/C [18]: 78.3%
- viability, T/C [19]: 103%
- viability, T/C [20]: 102%
- viability, T/C [21]: 108%
- viability, T/C [22]: 108%
- viability, T/C [23]: 110%
- viability, T/C [24]: 78%
- viability, T/C [25]: 97.4%
- viability, T/C [26]: 98.1%
- viability, T/C [27]: 104%
- viability, T/C [28]: 103%
- viability, T/C [29]: 107%
- viability, T/C [30]: 59.6%
- viability, T/C [31]: 102%
- viability, T/C [32]: 96.4%
- viability, T/C [33]: 94.2%
- viability, T/C [34]: 89.4%
- viability, T/C [35]: 61%
- viability, T/C [36]: 30.5%

Compound: CC(=O)O[C@H]1C(=O)[C@@]2(C)[C@H]([C@H](OC(=O)c3ccccc3)[C@]3(O)C[C@H](OC(=O)[C@H](O)[C@@H](NC(=O)c4ccccc4)c4ccccc4)C(C)=C1C3(C)C)[C@]1(OC(C)=O)CO[C@@H]1C[C@@H]2O + CN(C)c1ccc(Nc2c3ccc(NC(=O)CCN4CCCC4)cc3nc3cc(NC(=O)CCN4CCCC4)ccc23)cc1
- IC50 (second compound 0.0316 µM): 61.2 nM
- IC50 (second compound 0.1 µM): 61.3 nM
- IC50 (second compound 0.316 µM): 61 nM
- IC50 (second compound 1 µM): 61.7 nM
- IC50 (second compound 3.16 µM): 65.2 nM
- IC50 (second compound 10 µM): 55.5 nM
- viability, T/C [1]: 86.3%
- viability, T/C [2]: 23.1%
- viability, T/C [3]: 12.3%
- viability, T/C [4]: 11%
- viability, T/C [5]: 11.4%
- viability, T/C [6]: 10.6%
- viability, T/C [7]: 86.5%
- viability, T/C [8]: 23%
- viability, T/C [9]: 12.1%
- viability, T/C [10]: 13.2%
- viability, T/C [11]: 11.7%
- viability, T/C [12]: 12.9%
- viability, T/C [13]: 88.1%
- viability, T/C [14]: 21.3%
- viability, T/C [15]: 12.2%
- viability, T/C [16]: 10.6%
- viability, T/C [17]: 12.8%
- viability, T/C [18]: 15%
- viability, T/C [19]: 87.5%
- viability, T/C [20]: 23%
- viability, T/C [21]: 10.2%
- viability, T/C [22]: 12.8%
- viability, T/C [23]: 10.4%
- viability, T/C [24]: 12.9%
- viability, T/C [25]: 95.4%
- viability, T/C [26]: 23.2%
- viability, T/C [27]: 11.7%
- viability, T/C [28]: 10.7%
- viability, T/C [29]: 11.6%
- viability, T/C [30]: 11.9%
- viability, T/C [31]: 76.8%
- viability, T/C [32]: 22%
- viability, T/C [33]: 13.3%
- viability, T/C [34]: 11.7%
- viability, T/C [35]: 10.9%
- viability, T/C [36]: 12.4%

Compound: O=C(NO)c1cnc(N2CCN(S(=O)(=O)c3ccc4ccccc4c3)CC2)nc1 + Cc1cnc(CNC(=O)c2c(=O)c3ccc(N4CCCN(C)CC4)nc3n3c2sc2ccccc23)cn1
- IC50 (second compound 0.0316 µM): 210 nM
- IC50 (second compound 0.1 µM): 124 nM
- IC50 (second compound 0.316 µM): 109 nM
- IC50 (second compound 1 µM): < 31.6 nM
- IC50 (second compound 3.16 µM): < 31.6 nM
- IC50 (second compound 10 µM): < 31.6 nM
- viability, T/C [1]: 115%
- viability, T/C [2]: 124%
- viability, T/C [3]: 11.9%
- viability, T/C [4]: 0.22%
- viability, T/C [5]: 0.16%
- viability, T/C [6]: 0.19%
- viability, T/C [7]: 75.2%
- viability, T/C [8]: 59.1%
- viability, T/C [9]: 10.8%
- viability, T/C [10]: 0.18%
- viability, T/C [11]: 0.13%
- viability, T/C [12]: 0.17%
- viability, T/C [13]: 64.1%
- viability, T/C [14]: 53.2%
- viability, T/C [15]: 9.31%
- viability, T/C [16]: 0.13%
- viability, T/C [17]: 0.11%
- viability, T/C [18]: 0.14%
- viability, T/C [19]: 44.6%
- viability, T/C [20]: 36.8%
- viability, T/C [21]: 0.9%
- viability, T/C [22]: 0.11%
- viability, T/C [23]: 0.09%
- viability, T/C [24]: 0.12%
- viability, T/C [25]: 32.8%
- viability, T/C [26]: 23.3%
- viability, T/C [27]: 0.17%
- viability, T/C [28]: 0.11%
- viability, T/C [29]: 0.11%
- viability, T/C [30]: 0.15%
- viability, T/C [31]: 28.5%
- viability, T/C [32]: 22.6%
- viability, T/C [33]: 0.2%
- viability, T/C [34]: 0.12%
- viability, T/C [35]: 0.18%
- viability, T/C [36]: 0.21%

Compound: C=CC(=O)N1CCN(c2nc(=O)n(-c3c(C)ccnc3C(C)C)c3nc(-c4c(O)cccc4F)c(F)cc23)C(C)C1 (stereo not drawn) + Cc1[nH]c2ccc(F)cc2c1-c1nc2c3cccnc3c3ncccc3c2[nH]1
- IC50 (second compound 0.0316 µM): > 10000 nM
- IC50 (second compound 0.1 µM): > 10000 nM
- IC50 (second compound 0.316 µM): > 10000 nM
- IC50 (second compound 1 µM): > 10000 nM
- IC50 (second compound 3.16 µM): > 10000 nM
- IC50 (second compound 10 µM): > 10000 nM
- viability, T/C [1]: 101%
- viability, T/C [2]: 102%
- viability, T/C [3]: 96.6%
- viability, T/C [4]: 94.5%
- viability, T/C [5]: 111%
- viability, T/C [6]: 135%
- viability, T/C [7]: 116%
- viability, T/C [8]: 97.8%
- viability, T/C [9]: 103%
- viability, T/C [10]: 93.3%
- viability, T/C [11]: 140%
- viability, T/C [12]: 149%
- viability, T/C [13]: 99%
- viability, T/C [14]: 102%
- viability, T/C [15]: 105%
- viability, T/C [16]: 113%
- viability, T/C [17]: 152%
- viability, T/C [18]: 150%
- viability, T/C [19]: 99.1%
- viability, T/C [20]: 103%
- viability, T/C [21]: 110%
- viability, T/C [22]: 120%
- viability, T/C [23]: 161%
- viability, T/C [24]: 141%
- viability, T/C [25]: 94.2%
- viability, T/C [26]: 95.5%
- viability, T/C [27]: 104%
- viability, T/C [28]: 93.6%
- viability, T/C [29]: 104%
- viability, T/C [30]: 52.9%
- viability, T/C [31]: 108%
- viability, T/C [32]: 99%
- viability, T/C [33]: 116%
- viability, T/C [34]: 96.3%
- viability, T/C [35]: 121%
- viability, T/C [36]: 79.8%

Source: PubChem BioAssay AID2060485 (Molecular Pharmacology Branch, DTP, NCI, 2025)
